Experimental data published in patent publication US20200239530A1, “COMPOUNDS AND METHODS OF MODULATING PROTEIN DEGRADATION” (Vividion Therapeutics, Inc., priority 2017, published 2020).
Where two headings read alike, the source gives them in different places.

Key:
Assay in all cases: Competitive cysteine profiling, probe competition (Table 2B)
Type in all cases: binding
[1] = biological target: T1, Q9BX70 (Homo sapiens, UniProt Q9BX70)
T1 construct: 200 μL of lysate containing 5 mg/ml proteome was treated with 2 μL of 100× compound stock; endogenous in cells
Source text: (§1) The following 96-well sample prep protocol was used for sample preparation.

[2] = biological target: T2, Q8WXK3 (Homo sapiens, UniProt Q8WXK3)
T2 construct: 200 μL of lysate containing 5 mg/ml proteome was treated with 2 μL of 100× compound stock; endogenous in cells
Source text: as §1

[3] = biological target: T3, Q96Q07 (Homo sapiens, UniProt Q96Q07)
T3 construct: 200 μL of lysate containing 5 mg/ml proteome was treated with 2 μL of 100× compound stock; endogenous in cells
T3 sequence (Q96Q07 1-612): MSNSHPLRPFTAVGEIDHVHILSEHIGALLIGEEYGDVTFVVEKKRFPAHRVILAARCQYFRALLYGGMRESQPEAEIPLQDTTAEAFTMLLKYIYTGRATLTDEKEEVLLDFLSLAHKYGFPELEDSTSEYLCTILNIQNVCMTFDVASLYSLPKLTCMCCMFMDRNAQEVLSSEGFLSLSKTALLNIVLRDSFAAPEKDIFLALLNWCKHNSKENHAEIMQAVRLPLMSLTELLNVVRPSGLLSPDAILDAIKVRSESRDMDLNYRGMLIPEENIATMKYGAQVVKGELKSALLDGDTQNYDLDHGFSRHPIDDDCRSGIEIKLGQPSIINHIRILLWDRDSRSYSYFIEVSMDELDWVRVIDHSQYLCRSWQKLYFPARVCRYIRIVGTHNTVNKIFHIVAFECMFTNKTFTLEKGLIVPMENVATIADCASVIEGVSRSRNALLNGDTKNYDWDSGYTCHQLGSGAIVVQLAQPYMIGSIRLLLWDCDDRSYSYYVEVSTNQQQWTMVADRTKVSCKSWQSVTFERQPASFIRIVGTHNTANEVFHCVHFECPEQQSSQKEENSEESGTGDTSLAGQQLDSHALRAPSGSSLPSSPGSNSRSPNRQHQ
Source text: as §1

[4] = biological target: T4, Q9H0C5 (Homo sapiens, UniProt Q9H0C5)
T4 construct: 200 μL of lysate containing 5 mg/ml proteome was treated with 2 μL of 100× compound stock; endogenous in cells
T4 sequence (Q9H0C5 1-482): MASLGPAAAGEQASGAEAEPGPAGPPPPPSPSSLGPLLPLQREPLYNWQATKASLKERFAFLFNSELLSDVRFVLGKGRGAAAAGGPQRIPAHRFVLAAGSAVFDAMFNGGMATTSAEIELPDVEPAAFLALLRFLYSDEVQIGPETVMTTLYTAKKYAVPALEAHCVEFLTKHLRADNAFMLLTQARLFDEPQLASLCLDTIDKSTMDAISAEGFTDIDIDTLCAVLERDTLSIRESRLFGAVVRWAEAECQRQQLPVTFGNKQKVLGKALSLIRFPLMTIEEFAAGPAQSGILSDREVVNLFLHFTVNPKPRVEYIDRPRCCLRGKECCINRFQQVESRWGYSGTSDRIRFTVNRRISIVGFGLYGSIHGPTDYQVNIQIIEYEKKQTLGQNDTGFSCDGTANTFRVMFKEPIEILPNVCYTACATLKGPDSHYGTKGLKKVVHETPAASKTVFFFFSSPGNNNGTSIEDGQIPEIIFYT
Source text: as §1

[5] = biological target: T5, Q9BSF8 (Homo sapiens, UniProt Q9BSF8)
T5 construct: 200 μL of lysate containing 5 mg/ml proteome was treated with 2 μL of 100× compound stock; endogenous in cells
Source text: as §1

[6] = biological target: T6, Q7Z569 (Homo sapiens, UniProt Q7Z569)
T6 construct: 200 μL of lysate containing 5 mg/ml proteome was treated with 2 μL of 100× compound stock; endogenous in cells
Source text: as §1

[7] = biological target: T7, Q9Y297 (Homo sapiens, UniProt Q9Y297)
T7 construct: 200 μL of lysate containing 5 mg/ml proteome was treated with 2 μL of 100× compound stock; endogenous in cells
Source text: as §1

[8] = biological target: T8, Q9P2G1 (Homo sapiens, UniProt Q9P2G1)
T8 construct: Cells were resuspended in cold PBS on ice and sonicated with a probe sonicator to achieve lysis; endogenous in cells
T8 sequence (Q9P2G1 1-1089): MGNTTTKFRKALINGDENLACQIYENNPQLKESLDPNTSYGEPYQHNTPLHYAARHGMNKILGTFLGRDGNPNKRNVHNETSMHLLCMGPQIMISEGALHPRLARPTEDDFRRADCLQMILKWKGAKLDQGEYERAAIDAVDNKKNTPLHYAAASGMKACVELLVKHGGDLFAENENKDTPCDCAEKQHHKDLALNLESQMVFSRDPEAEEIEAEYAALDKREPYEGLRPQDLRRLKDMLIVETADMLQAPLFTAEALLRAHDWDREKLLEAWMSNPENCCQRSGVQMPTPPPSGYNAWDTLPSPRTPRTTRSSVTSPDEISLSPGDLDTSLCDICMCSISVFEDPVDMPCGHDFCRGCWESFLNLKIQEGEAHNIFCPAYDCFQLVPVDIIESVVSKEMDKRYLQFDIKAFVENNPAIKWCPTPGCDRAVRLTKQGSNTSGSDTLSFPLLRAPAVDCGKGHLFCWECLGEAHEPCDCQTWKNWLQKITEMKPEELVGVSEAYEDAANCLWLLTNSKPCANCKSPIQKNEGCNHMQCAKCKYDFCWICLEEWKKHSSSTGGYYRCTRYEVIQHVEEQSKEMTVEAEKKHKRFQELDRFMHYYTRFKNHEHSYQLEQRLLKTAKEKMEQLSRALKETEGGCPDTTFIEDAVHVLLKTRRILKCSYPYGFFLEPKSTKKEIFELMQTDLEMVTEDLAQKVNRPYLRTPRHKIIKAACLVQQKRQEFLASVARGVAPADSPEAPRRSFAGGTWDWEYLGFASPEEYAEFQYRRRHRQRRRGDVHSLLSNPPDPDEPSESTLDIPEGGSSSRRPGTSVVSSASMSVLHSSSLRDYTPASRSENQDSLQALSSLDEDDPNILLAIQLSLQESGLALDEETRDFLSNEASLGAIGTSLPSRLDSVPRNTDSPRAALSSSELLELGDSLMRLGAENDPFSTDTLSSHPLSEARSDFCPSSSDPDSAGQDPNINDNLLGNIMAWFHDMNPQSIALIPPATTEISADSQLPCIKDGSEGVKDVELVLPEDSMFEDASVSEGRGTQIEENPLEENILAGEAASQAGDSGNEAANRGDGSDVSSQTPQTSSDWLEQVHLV
Source text: as §1

[9] = biological target: T9, Q9UJX4 (Homo sapiens, UniProt Q9UJX4)
T9 construct: Cells were resuspended in cold PBS on ice and sonicated with a probe sonicator to achieve lysis; endogenous in cells
Source text: as §1

[10] = 100 uM, read-out: KB02_100 uM_percent_inhibition
[11] = 100 uM, read-out: KB05_100 uM_percent_inhibition
[12] = 500 uM, read-out: KB05_500 uM_percent_inhibition
[13] = read-out: KB05_100 uM_percent_inhibition

T9 sequence (Q9UJX4 whole entry): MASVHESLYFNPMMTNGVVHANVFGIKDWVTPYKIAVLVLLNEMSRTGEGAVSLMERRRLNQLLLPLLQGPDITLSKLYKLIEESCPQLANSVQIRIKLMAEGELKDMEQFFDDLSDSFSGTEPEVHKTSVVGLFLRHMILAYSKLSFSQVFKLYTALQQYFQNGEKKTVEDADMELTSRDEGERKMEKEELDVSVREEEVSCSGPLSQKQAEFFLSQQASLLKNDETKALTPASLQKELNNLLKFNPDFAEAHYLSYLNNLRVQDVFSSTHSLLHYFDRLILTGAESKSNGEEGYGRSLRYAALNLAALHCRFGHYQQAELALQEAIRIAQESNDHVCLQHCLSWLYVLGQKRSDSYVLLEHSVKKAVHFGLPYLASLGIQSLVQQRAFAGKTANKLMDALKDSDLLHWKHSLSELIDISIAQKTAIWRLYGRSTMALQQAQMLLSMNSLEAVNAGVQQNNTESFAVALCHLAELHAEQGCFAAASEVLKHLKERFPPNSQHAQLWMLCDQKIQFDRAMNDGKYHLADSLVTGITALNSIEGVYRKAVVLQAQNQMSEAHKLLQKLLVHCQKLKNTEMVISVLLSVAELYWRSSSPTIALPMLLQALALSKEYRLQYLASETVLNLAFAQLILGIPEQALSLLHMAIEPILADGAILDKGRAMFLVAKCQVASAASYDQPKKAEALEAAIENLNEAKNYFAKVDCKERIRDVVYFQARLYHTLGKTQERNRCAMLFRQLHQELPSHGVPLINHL
T5 sequence (Q9BSF8 whole entry): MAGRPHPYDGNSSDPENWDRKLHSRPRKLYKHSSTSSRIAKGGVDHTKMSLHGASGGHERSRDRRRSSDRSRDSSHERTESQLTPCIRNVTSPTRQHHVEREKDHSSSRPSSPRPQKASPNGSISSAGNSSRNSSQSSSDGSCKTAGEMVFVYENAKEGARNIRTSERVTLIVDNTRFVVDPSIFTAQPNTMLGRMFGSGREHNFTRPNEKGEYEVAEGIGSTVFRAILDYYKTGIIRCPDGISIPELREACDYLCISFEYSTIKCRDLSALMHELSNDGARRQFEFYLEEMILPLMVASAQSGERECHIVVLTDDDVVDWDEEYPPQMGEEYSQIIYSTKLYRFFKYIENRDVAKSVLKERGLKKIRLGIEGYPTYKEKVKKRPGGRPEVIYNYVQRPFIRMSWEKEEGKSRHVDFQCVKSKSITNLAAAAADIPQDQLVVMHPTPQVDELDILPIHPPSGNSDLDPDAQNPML
T7 sequence (Q9Y297 whole entry): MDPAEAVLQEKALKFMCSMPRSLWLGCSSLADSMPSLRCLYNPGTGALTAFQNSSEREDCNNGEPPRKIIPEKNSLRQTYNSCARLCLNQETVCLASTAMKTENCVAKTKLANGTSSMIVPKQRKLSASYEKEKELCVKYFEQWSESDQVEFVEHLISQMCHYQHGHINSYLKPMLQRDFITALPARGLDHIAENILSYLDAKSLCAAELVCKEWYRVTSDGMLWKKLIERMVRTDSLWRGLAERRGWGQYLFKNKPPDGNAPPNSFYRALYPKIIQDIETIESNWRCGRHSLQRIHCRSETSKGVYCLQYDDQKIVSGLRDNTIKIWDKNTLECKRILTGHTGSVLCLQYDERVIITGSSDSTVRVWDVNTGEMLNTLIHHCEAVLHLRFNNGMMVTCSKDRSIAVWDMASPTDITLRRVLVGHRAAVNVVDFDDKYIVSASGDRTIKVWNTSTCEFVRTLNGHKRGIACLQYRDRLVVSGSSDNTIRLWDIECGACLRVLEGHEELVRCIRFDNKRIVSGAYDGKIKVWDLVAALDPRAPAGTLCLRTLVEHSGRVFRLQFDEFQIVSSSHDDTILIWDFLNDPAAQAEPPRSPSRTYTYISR
T2 sequence (Q8WXK3 whole entry): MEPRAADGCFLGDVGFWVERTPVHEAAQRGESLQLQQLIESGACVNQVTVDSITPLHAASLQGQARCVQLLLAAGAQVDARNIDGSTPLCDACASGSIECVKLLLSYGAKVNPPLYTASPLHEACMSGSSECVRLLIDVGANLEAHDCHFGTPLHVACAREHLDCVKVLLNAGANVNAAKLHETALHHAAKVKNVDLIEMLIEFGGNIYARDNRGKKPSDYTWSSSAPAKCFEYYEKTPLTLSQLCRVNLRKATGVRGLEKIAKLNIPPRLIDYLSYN
T1 sequence (Q9BX70 whole entry): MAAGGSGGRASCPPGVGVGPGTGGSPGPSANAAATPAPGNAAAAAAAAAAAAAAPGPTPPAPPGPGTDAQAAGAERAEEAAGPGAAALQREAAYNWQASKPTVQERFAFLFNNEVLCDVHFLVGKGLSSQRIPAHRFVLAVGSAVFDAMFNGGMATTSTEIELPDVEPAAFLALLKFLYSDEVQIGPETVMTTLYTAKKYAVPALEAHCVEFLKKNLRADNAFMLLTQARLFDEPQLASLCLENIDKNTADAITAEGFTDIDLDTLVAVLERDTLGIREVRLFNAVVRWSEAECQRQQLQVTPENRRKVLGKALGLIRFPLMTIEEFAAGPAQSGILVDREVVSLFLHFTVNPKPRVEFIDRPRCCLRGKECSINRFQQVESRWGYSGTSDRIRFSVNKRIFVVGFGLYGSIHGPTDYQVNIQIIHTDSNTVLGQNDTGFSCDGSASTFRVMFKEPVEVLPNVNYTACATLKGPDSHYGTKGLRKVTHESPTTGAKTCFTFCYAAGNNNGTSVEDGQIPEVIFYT
T6 sequence (Q7Z569 whole entry): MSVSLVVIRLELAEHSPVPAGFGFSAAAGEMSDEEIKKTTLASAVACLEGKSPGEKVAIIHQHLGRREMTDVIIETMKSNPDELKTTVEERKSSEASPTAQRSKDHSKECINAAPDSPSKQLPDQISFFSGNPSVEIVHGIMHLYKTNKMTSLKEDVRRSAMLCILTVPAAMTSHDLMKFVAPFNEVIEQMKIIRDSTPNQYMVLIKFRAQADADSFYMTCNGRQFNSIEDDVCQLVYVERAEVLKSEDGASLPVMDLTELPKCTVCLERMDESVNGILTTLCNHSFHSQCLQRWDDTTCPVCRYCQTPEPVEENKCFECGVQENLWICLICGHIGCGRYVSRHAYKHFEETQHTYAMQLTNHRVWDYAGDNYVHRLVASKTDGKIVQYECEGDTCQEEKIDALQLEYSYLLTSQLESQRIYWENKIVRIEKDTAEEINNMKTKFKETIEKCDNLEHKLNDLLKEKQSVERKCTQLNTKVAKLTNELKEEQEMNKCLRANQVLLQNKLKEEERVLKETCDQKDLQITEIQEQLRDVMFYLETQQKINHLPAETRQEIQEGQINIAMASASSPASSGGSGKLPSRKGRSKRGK

## COc1ccc2c(c1)CCCN2C(=O)CCl [KB02]
[1]; [10]
  inhibition at 100 µM: 4%
[2]; 500 uM, read-out: KB02_500 uM_percent_inhibition
  inhibition at 500 µM: 44%
[3]; 500 uM
  KB02_500 uM_percent_inhibition: 45%
[3]; read-out: KB02_500 uM_percent_inhibition
  inhibition at 500 µM: 54%
[4]; [10]
  inhibition at 100 µM: 9%

## C=CC(=O)N(c1ccccc1)c1ccc(Br)cc1 [KB05]
[5]; [11]
  inhibition at 100 µM: 27%
[5]; 500 uM
  KB05_500 uM_percent_inhibition: 53%
[5]; [12]
  inhibition at 500 µM: 37%
[6]; [13]
  inhibition at 100 µM: 33%
[7]; [13]
  inhibition at 100 µM: 43%
[3]; read-out: KB05_500 uM_percent_inhibition
  inhibition at 500 µM: 65%
[8]; 100 uM
  KB05_100 uM_percent_inhibition: 22%
[8]; [13]
  inhibition at 100 µM: 41%
[4]; 500 uM
  KB05_500 uM_percent_inhibition: 36%
[4]; [12]
  inhibition at 500 µM: 56%
[9]; [11]
  inhibition at 100 µM: 9%
[9]; [12]
  inhibition at 500 µM: 74%

## O=C(CCl)Nc1cc(C(F)(F)F)cc(C(F)(F)F)c1 [KBO3]
[1]; 500 uM
  KB03_500 uM_percent_inhibition: 40%
[5]; 100 uM
  KB03_100 uM_percent_inhibition: 29%
[6]; 100 uM
  KB03_100 uM_percent_inhibition: 10%
[2]; 100 uM
  KB03_100 uM_percent_inhibition: 7%
[7]; 100 uM
  KB03_100 uM_percent_inhibition: 54%
[8]; 100 uM
  KB03_100 uM_percent_inhibition: 29%
[9]; 100 uM
  KB03_100 uM_percent_inhibition: 31%
